# According to article PMC5602100, “Retro analog concept: comparative study on physico-chemical and biological properties of selected antimicrobial peptides” (Amino Acids, 2017):
# Read-outs that look alike come from different tables or passages of the source. Ends that are not written are not given here.
# Assays:
# E. coli ATCC 23506 = tested on: E. coli ATCC 23506
# Protocol: (§1) The minimal inhibitory concentrations (MICs) for bacteria and fungi were determined by the broth microdilution method according to the Clinical and Laboratory Standards Institute (CLSI) protocol (Clinical and Laboratory Standards Institute (CLSI) [2002], [2012]). For this purpose, the initial inoculums of bacteria (5 × 10^5 CFU/mL) in Mueller–Hinton Broth (Biocorp, Warsaw, Poland) were exposed to the ranging concentrations of compounds (0.125–256 µg/mL) and incubated for 18 h at 37 °C. In case of fungi, the initial inoculums of 2 × 10^3 CFU/mL in RPMI-1640 (Sigma-Aldrich, Steinheim, Germany) were exposed to the ranging concentrations of compounds (0.5–256 µg/mL) and incubated for 24 h at 37 °C. The experiments were conducted on 96-well microtiter plates, with the final volume of 100 µL. Cell densities were adjusted spectrophotometrically (Multiskan™ GO Microplate Spectrophotometer, Thermo Scientific) at the wavelengths of 600 nm for bacteria and 530 nm for fungi. The MIC was taken as the lowest drug concentration at which a noticeable growth of microorganisms was inhibited. Reference strains of bacteria: Escherichia coli ATCC 25922, E. coli ATCC 23506, Enterococcus faecalis PCM 2673, Klebsiella pneumoniae ATCC 700603, Pseudomonas aeruginosa ATCC 9027, Staphylococcus aureus ATCC 25923, S. aureus 9144, Streptococcus pneumoniae ATCC 49619, and fungi: Aspergillus niger ATCC 16404, Candida albicans ATCC 10231, and C. glabrata ATCC 15126 were obtained from Polish Collection of Microorganisms (PCM, Polish Academy of Sciences, Wroclaw, Poland) and from American Type Culture Collection (ATCC). All experiments were conducted in triplicate.
# C. glabrata ATCC 15126 = tested on: C. glabrata ATCC 15126
# Protocol: as §1
# E. faecalis PCM 2673 = tested on: E. faecalis PCM 2673
# Protocol: as §1
# S. aureus ATCC 9144 = tested on: S. aureus ATCC 9144
# Protocol: as §1
# S. aureus ATCC 25923 = tested on: S. aureus ATCC 25923
# Protocol: as §1
# C. albicans ATCC 10231 = tested on: C. albicans ATCC 10231
# Protocol: as §1
# S. pneumoniae ATCC 49619 = tested on: S. pneumoniae ATCC 49619
# Protocol: as §1
# A. niger ATCC 16404 = tested on: A. niger ATCC 16404
# Protocol: as §1
# [1] = tested on: K. pneumoniae ATCC 700603
# Protocol: as §1
# P. aeruginosa ATCC 9027 = tested on: P. aeruginosa ATCC 9027
# Protocol: as §1
# E. coli ATCC 25922 = tested on: E. coli ATCC 25922
# Protocol: as §1
# [2] = tested on: human red blood cells (RBCs); test: Hemolysis assay; format: cell-based; settings: fresh human RBCs 4% (v/v) in PBS, 60 min at 37 °C, absorbance 540 nm, 100% control 1% Triton-X 100, triplicate
# Protocol: The hemolysis assay was conducted according to the procedure described previously in the literature (Avrahami and Shai [2004]). Fresh human red blood cells (RBCs) with EDTA as anticoagulant were rinsed three times with a phosphate-buffer saline (PBS) by centrifugation at 800×g for 10 min and resuspended in PBS. Serial dilution of peptides (1–512 µg/mL) was conducted in PBS on 96-well plates. Then the stock solution of RBCs was added to reach a final volume of 100 µL with a 4% concentration of erythrocytes (v/v). The control wells for 0 and 100% hemolysis consisted of RBCs suspended in PBS and 1% of Triton-X 100, respectively. Subsequently, the plates were incubated for 60 min at 37 °C and then centrifuged at 800×g for 10 min at 4 °C (Sorvall ST 16R Centrifuge, Thermo Scientific). After centrifugation the supernatant was carefully […] to new microtiter plates and the release of hemoglobin was monitored by measurement of absorbance at 540 nm (Multiskan™ GO Microplate Spectrophotometer, Thermo Scientific). All experiments were conducted in triplicate.
# [3] = broth microdilution (CLSI), 2 × 10^3 CFU/mL in RPMI-1640, 0.5–256 µg/mL, 24 h at 37 °C, triplicate
# [4] = broth microdilution (CLSI), 5 × 10^5 CFU/mL in Mueller–Hinton Broth, 0.125–256 µg/mL, 18 h at 37 °C, triplicate
Substance,"MIC, E. coli ATCC 23506 (E. coli ATCC 23506; ATCC 23506, 18 h)","MIC, C. glabrata ATCC 15126 (C. glabrata ATCC 15126; ATCC 15126, 24 h)","MIC, E. faecalis PCM 2673 (E. faecalis PCM 2673; PCM 2673, 18 h)","MIC, S. aureus ATCC 9144 (S. aureus ATCC 9144; ATCC 9144, 18 h)","MIC, S. aureus ATCC 25923 (S. aureus ATCC 25923; ATCC 25923, 18 h)","MIC, C. albicans ATCC 10231 (C. albicans ATCC 10231; ATCC 10231, 24 h)","MIC, S. pneumoniae ATCC 49619 (S. pneumoniae ATCC 49619; ATCC 49619, 18 h)","MIC, A. niger ATCC 16404 (A. niger ATCC 16404; ATCC 16404, 24 h)","MIC, K. pneumoniae ATCC 700603 ([1]; ATCC 700603, 18 h)","MIC, P. aeruginosa ATCC 9027 (P. aeruginosa ATCC 9027; ATCC 9027, 18 h)","MIC, E. coli ATCC 25922 (E. coli ATCC 25922; ATCC 25922, 18 h)","MIC, C. glabrata ATCC 15126 (C. glabrata ATCC 15126; [3])","MIC, C. albicans ATCC 10231 (C. albicans ATCC 10231; [3])","MIC, A. niger ATCC 16404 (A. niger ATCC 16404; [3])","MIC, K. pneumoniae ATCC 700603 [1, 4]",also measured
KKLIKVFAKGFKKAKKLFKGIG-NH2 [r-pexiganan],2 µg/mL,128 µg/mL,64 µg/mL,64 µg/mL,128 µg/mL,256 µg/mL,4 µg/mL,32 µg/mL,0.25 µg/mL,2 µg/mL,8 µg/mL,–,–,–,–,–
GIGKFLKKAKKFGKAFVKILKK-NH2 [pexiganan],2 µg/mL,256 µg/mL,16 µg/mL,8 µg/mL,8 µg/mL,256 µg/mL,1 µg/mL,16 µg/mL,1 µg/mL,2 µg/mL,4 µg/mL,–,–,–,–,–
ILRWPWWPWRRK-NH2 [omiganan],32 µg/mL,–,16 µg/mL,16 µg/mL,16 µg/mL,–,8 µg/mL,–,–,16 µg/mL,16 µg/mL,128 µg/mL,128 µg/mL,64 µg/mL,8 µg/mL,–
KWKLFKKIGAVLKVL-NH2 [CAMEL],–,–,–,–,–,–,–,–,–,–,–,64 µg/mL,32 µg/mL,16 µg/mL,0.125 µg/mL,"MIC, E. coli ATCC 23506 (E. coli ATCC 23506; [4]): 1 µg/mL; MIC, E. faecalis PCM 2673 (E. faecalis PCM 2673; [4]): 8 µg/mL; MIC, S. aureus ATCC 9144 (S. aureus ATCC 9144; [4]): 4 µg/mL; MIC, S. aureus ATCC 25923 (S. aureus ATCC 25923; [4]): 4 µg/mL; MIC, S. pneumoniae ATCC 49619 (S. pneumoniae ATCC 49619; [4]): 0.5 µg/mL; MIC, P. aeruginosa ATCC 9027 (P. aeruginosa ATCC 9027; [4]): 2 µg/mL; MIC, E. coli ATCC 25922 (E. coli ATCC 25922; [4]): 2 µg/mL"
LVKLVAGIKKFLKWK-NH2 [r-CAMEL],–,–,–,–,–,–,–,–,–,–,–,>256 µg/mL,256 µg/mL,256 µg/mL,2 µg/mL,"rate of hemolysis at MIC concentrations [2]: below 10%; MIC, E. coli ATCC 23506 (E. coli ATCC 23506; [4]): 64 µg/mL; MIC, E. faecalis PCM 2673 (E. faecalis PCM 2673; [4]): 64 µg/mL; MIC, S. aureus ATCC 9144 (S. aureus ATCC 9144; [4]): 64 µg/mL; MIC, S. aureus ATCC 25923 (S. aureus ATCC 25923; [4]): 128 µg/mL; MIC, S. pneumoniae ATCC 49619 (S. pneumoniae ATCC 49619; [4]): 128 µg/mL; MIC, P. aeruginosa ATCC 9027 (P. aeruginosa ATCC 9027; [4]): 8 µg/mL; MIC, E. coli ATCC 25922 (E. coli ATCC 25922; [4]): 128 µg/mL"
LIGSLVRGILPLF-NH2 [r-temporin A],256 µg/mL,>256 µg/mL,256 µg/mL,64 µg/mL,64 µg/mL,256 µg/mL,>256 µg/mL,256 µg/mL,128 µg/mL,256 µg/mL,256 µg/mL,–,–,–,–,–
LGGIVSAVKKIVDFLG-NH2 [r-citropin 1.1],128 µg/mL,256 µg/mL,128 µg/mL,64 µg/mL,64 µg/mL,128 µg/mL,128 µg/mL,256 µg/mL,32 µg/mL,–,64 µg/mL,–,–,–,–,–
GLFDVIKKVASVIGGL-NH2 [citropin 1.1],32 µg/mL,128 µg/mL,32 µg/mL,16 µg/mL,16 µg/mL,128 µg/mL,32 µg/mL,64 µg/mL,16 µg/mL,128 µg/mL,32 µg/mL,–,–,–,–,–
FLPLIGRVLSGIL-NH2 [temporin A],>256 µg/mL,>256 µg/mL,64 µg/mL,8 µg/mL,4 µg/mL,256 µg/mL,>256 µg/mL,256 µg/mL,128 µg/mL,>256 µg/mL,256 µg/mL,–,–,–,–,–
FSEAIKKIIDFLG-NH2 [r-aurein 1.2],256 µg/mL,>256 µg/mL,256 µg/mL,>256 µg/mL,>256 µg/mL,>256 µg/mL,256 µg/mL,>256 µg/mL,128 µg/mL,>256 µg/mL,256 µg/mL,–,–,–,–,–
GLFDIIKKIAESF-NH2 [aurein 1.2],128 µg/mL,–,64 µg/mL,128 µg/mL,128 µg/mL,–,64 µg/mL,–,–,256 µg/mL,128 µg/mL,128 µg/mL,128 µg/mL,64 µg/mL,16 µg/mL,rate of hemolysis at MIC concentrations [2]: lower than 10%
